The values that follow come from patent publication US7022343B2, “Controlled release of anti-arrhythmic agents” (Genzyme Corporation, priority 2000, dated 2006).

SMILES strings stand for the structures. Structures can show the parent of a compound that is named as a salt.

Series [1] can be described thus: Tissue analysis of drug content under FOCALSEAL-S gels on porcine heart. The class given is in vivo. As to conditions: lung tissue adjacent to gel-treated sites; pig, seven days.
Series [2] in a line: Amiodarone concentration in dog right atrium under FOCALSEAL-S hydrogels (Example 9). The format is in vivo. As to conditions: right atrial appendage, right ventricle, left atrial appendage, left atrial free wall, distal lung.
For series [3] the following is noted: FOCALSEAL-L; FIG. 2A / FIG. 2B.

In the case of `CCCCc1oc2ccccc2c1C(=O)c1cc(I)c(OCCN(CC)CC)c(I)c1` [amiodarone, Amiodarone hydrochloride], the concentration at 7 days in series [1] is at most 17000 ng/g. Moreover, the “other tissue harvested showing a detectable level of amiodarone” value in series [2] is reported as “None”. The “change in pH and modulus as concentration is increased” value in series [3] was “decrease in pH and modulus”.
